In the NIST ThermoML archive (doi:10.1016/j.jct.2017.03.006):
Numbers after ± are expanded uncertainties.

How the values were obtained:
[1] = 100 kPa, Liquid, Concentric cylinders viscometry
[2] = xn = mol fraction of the nth substance listed; conditions: Liquid, x1 = 1; for mass density: Vibrating tube method; for viscosity: Concentric cylinders viscometry

**Q.** What does the source list for `CCCCO` [butan-1-ol]?
**A.** viscosity ([1]; 323.15 K): 1.406 ± 0.029 mPa·s; viscosity ([1]; 333.15 K): 1.134 ± 0.024 mPa·s

**Q.** Which results are given for `CCCCO` [butan-1-ol] + Cc1ccc(C)c(C)c1?
**A.** mass density ([2]; 273.15 K, 100 kPa): 824.6 ± 0.7 kg/m3; mass density ([2]; 273.15 K, 1000 kPa): 825.2 ± 0.7 kg/m3; mass density ([2]; 273.15 K, 5000 kPa): 827.7 ± 0.7 kg/m3; mass density ([2]; 273.15 K, 10000 kPa): 830.8 ± 0.7 kg/m3; mass density ([2]; 273.15 K, 20000 kPa): 836.7 ± 0.7 kg/m3; mass density ([2]; 273.15 K, 30000 kPa): 842.3 ± 0.7 kg/m3; mass density ([2]; 273.15 K, 40000 kPa): 847.6 ± 0.8 kg/m3; mass density ([2]; 273.15 K, 50000 kPa): 852.5 ± 0.8 kg/m3; mass density ([2]; 273.15 K, 60000 kPa): 857.2 ± 0.8 kg/m3; mass density ([2]; 273.15 K, 70000 kPa): 861.7 ± 0.8 kg/m3; mass density ([2]; 273.15 K, 80000 kPa): 866 ± 0.8 kg/m3; mass density ([2]; 273.15 K, 90000 kPa): 870.1 ± 0.9 kg/m3; mass density ([2]; 273.15 K, 100000 kPa): 874 ± 0.9 kg/m3; mass density ([2]; 273.15 K, 120000 kPa): 881.5 ± 0.9 kg/m3; mass density ([2]; 273.15 K, 140000 kPa): 888.5 ± 0.9 kg/m3; viscosity ([2]; 293.15 K, 100 kPa): 2.953 ± 0.06 mPa·s; mass density ([2]; 293.15 K, 100 kPa): 809.6 ± 0.7 kg/m3; mass density ([2]; 293.15 K, 1000 kPa): 810.2 ± 0.7 kg/m3; mass density ([2]; 293.15 K, 5000 kPa): 813.1 ± 0.7 kg/m3; mass density ([2]; 293.15 K, 10000 kPa): 816.5 ± 0.7 kg/m3; mass density ([2]; 293.15 K, 20000 kPa): 822.9 ± 0.7 kg/m3; mass density ([2]; 293.15 K, 30000 kPa): 829 ± 0.8 kg/m3; mass density ([2]; 293.15 K, 40000 kPa): 834.7 ± 0.8 kg/m3; mass density ([2]; 293.15 K, 50000 kPa): 840 ± 0.8 kg/m3; mass density ([2]; 293.15 K, 60000 kPa): 845 ± 0.8 kg/m3; mass density ([2]; 293.15 K, 70000 kPa): 849.8 ± 0.8 kg/m3; mass density ([2]; 293.15 K, 80000 kPa): 854.4 ± 0.9 kg/m3; mass density ([2]; 293.15 K, 90000 kPa): 858.7 ± 0.9 kg/m3; mass density ([2]; 293.15 K, 100000 kPa): 862.9 ± 0.9 kg/m3; mass density ([2]; 293.15 K, 120000 kPa): 870.8 ± 0.9 kg/m3; mass density ([2]; 293.15 K, 140000 kPa): 878.2 ± 1 kg/m3; viscosity ([2]; 303.15 K, 100 kPa): 2.263 ± 0.046 mPa·s; viscosity ([2]; 313.15 K, 100 kPa): 1.769 ± 0.036 mPa·s; mass density ([2]; 313.15 K, 100 kPa): 794.1 ± 0.7 kg/m3; mass density ([2]; 313.15 K, 1000 kPa): 794.8 ± 0.7 kg/m3; mass density ([2]; 313.15 K, 5000 kPa): 798 ± 0.7 kg/m3; mass density ([2]; 313.15 K, 10000 kPa): 801.8 ± 0.7 kg/m3; mass density ([2]; 313.15 K, 20000 kPa): 808.9 ± 0.7 kg/m3; mass density ([2]; 313.15 K, 30000 kPa): 815.5 ± 0.8 kg/m3; mass density ([2]; 313.15 K, 40000 kPa): 821.6 ± 0.8 kg/m3; mass density ([2]; 313.15 K, 50000 kPa): 827.4 ± 0.8 kg/m3; mass density ([2]; 313.15 K, 60000 kPa): 832.7 ± 0.8 kg/m3; mass density ([2]; 313.15 K, 70000 kPa): 837.8 ± 0.9 kg/m3; mass density ([2]; 313.15 K, 80000 kPa): 842.7 ± 0.9 kg/m3; mass density ([2]; 313.15 K, 90000 kPa): 847.3 ± 0.9 kg/m3; mass density ([2]; 313.15 K, 100000 kPa): 851.7 ± 0.9 kg/m3; mass density ([2]; 313.15 K, 120000 kPa): 860 ± 1 kg/m3; mass density ([2]; 313.15 K, 140000 kPa): 867.8 ± 1 kg/m3; viscosity ([2]; 323.15 K, 100 kPa): 1.406 ± 0.029 mPa·s; viscosity ([2]; 333.15 K, 100 kPa): 1.134 ± 0.024 mPa·s; mass density ([2]; 333.15 K, 100 kPa): 778 ± 0.7 kg/m3; mass density ([2]; 333.15 K, 1000 kPa): 778.8 ± 0.7 kg/m3; mass density ([2]; 333.15 K, 5000 kPa): 782.4 ± 0.7 kg/m3; mass density ([2]; 333.15 K, 10000 kPa): 786.5 ± 0.7 kg/m3; mass density ([2]; 333.15 K, 20000 kPa): 794.4 ± 0.7 kg/m3; mass density ([2]; 333.15 K, 30000 kPa): 801.6 ± 0.8 kg/m3; mass density ([2]; 333.15 K, 40000 kPa): 808.2 ± 0.8 kg/m3; mass density ([2]; 333.15 K, 50000 kPa): 814.4 ± 0.8 kg/m3; mass density ([2]; 333.15 K, 60000 kPa): 820.1 ± 0.8 kg/m3; mass density ([2]; 333.15 K, 70000 kPa): 825.6 ± 0.9 kg/m3; mass density ([2]; 333.15 K, 80000 kPa): 830.7 ± 0.9 kg/m3; mass density ([2]; 333.15 K, 90000 kPa): 835.6 ± 0.9 kg/m3; mass density ([2]; 333.15 K, 100000 kPa): 840.3 ± 1 kg/m3; mass density ([2]; 333.15 K, 120000 kPa): 849 ± 1 kg/m3; mass density ([2]; 333.15 K, 140000 kPa): 857.1 ± 1.1 kg/m3
